This is an account of results in patent publication US20130345392A1, “EDN3-LIKE PEPTIDES AND USES THEREOF” (Pfizer Inc, priority 2011, published 2013).

One assay deals with GLUTag cells. The note with it: for GLP-1 secretion from GLUTag cells, result in words: endothelin-3 at highest concentration 10 μM.
The subject of another assay is rat perfused colon. Nature of the assay: GLP-1 secretion from rat perfused colon ex vivo. Particulars: forskolin (1 μM), rat perfused colon, vs baseline, p=0.0398. As to the method: Ex vivo rat colon vascular perfusion experiments were performed as previously described (Plaisancié, 1995). Male Sprague-Dawley rats (300 g) were purchased from Charles River and fed ad libitum with Purina Lab Chow #5001 (WF Fisher and Son Inc Sommerville, N.J.). Rats were decapitated and the abdomen was opened with a midline incision. […] The arterial vascular perfusion started immediately with an oxygenated Krebs-Henseleit buffer containing-solution at a rate of 2 mL/minute [solution: Krebs-Henseleit buffer (25.0 mM NaHCO3; 118 mM NaCl; 4.7 mM KCl; 1.2 mM MgSO4; 1.2 mM KH2PO4; 2.5 mM CaCl2) with 3% BSA, 5 mM glucose, MEM essential and nonessential amino acids (pH 7.4)]. The colonal lumen was perfused at the rate of 0.5 mL/minute. The remaining colon and small intestine were removed after the ligation of their respective supplying vessels. After the colon preparation was transferred to a 37° C. tissue bath, the portal effluent was collected as 5 minute fractions. The fraction aliquots were frozen at −20° C. for subsequent determinations of GLP-1. EDN3 97-140 was dissolved at 200 nM in vascular perfusion solution and perfused into the artery after a 30 minute baseline collection. […] The GLP-1 detection assay was carried out by using a commercial kit for active GLP-1 (7-36) amide according to the manufacturer's instructions (Millipore). GLP-1 release data was normalized to % baseline using the average of fractions collected prior to treatment as the baseline value and the peak data following each treatment. The average data across 3 independent experiments was reported comparing EDN3 97-140 versus control (baseline) and forskolin versus control (baseline). Statistical analysis was performed by one sided Satterwaite's test due to unequal variance and the Holm test was applied to account for multiple comparisons.

Assay [1] relates to isolated rat aortic rings. The note with it: read-out: EC50, concentration-dependent contractions, n=4-6. How it is done:
The thoracic aorta with endothelium intact was isolated from male Wistar rats (300-500 g), cut into 3 mm rings, and placed in tissue baths with oxygenated Krebs-Henseleit buffer containing (in mM): KCl (4.7), CaCl2-2H2O (2.5), MgSO4-7H2O (1.2), KH2PO4 (1.2), D-glucose (10), NaHCO3 (25), NaCl (118). Tissues were placed under a 3 g basal tension and allowed to equilibrate for 1 hour at 37° C.

Assay [2] has as its target T1, human endothelin ETA receptor (human, UniProt P25101 21-427).
T1 construct: whole, on cells; Assayed as membrane homogenates (10 ug protein) of transfected CHO cells; also called endothelin receptor A
T1 sequence (looked up): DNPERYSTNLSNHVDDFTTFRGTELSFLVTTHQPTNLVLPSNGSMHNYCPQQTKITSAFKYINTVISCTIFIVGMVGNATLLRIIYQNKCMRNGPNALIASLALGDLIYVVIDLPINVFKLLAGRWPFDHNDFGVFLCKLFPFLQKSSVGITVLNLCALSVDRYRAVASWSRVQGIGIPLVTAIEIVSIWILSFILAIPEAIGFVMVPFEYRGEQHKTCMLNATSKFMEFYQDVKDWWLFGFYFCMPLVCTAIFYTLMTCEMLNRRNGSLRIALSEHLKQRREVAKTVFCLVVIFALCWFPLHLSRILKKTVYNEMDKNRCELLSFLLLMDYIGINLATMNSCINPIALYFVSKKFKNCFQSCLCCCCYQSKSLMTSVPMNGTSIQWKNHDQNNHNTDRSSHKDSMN
The assay is described as follows: radioligand competition ([125I]endothelin-1) on membranes of CHO cells transfected with human ETA. How it is done:
To evaluate the affinity of EDN3 97-140 for the agonist site of the human endothelin ETA receptor, radioligand binding with CHO cells transfected with the ETA receptor was used. […] Following incubation, the samples are filtered rapidly under vacuum through glass fiber filters (GF/B, Packard) presoaked with 0.1% BSA and rinsed several times with an ice-cold buffer containing 50 mM Tris-HCl and 150 mM NaCl using a 96-sample cell harvester (Unifilter, Packard). Filters were dried and then counted for radioactivity in a scintillation counter (Topcount, Packard) using a scintillation cocktail (Microscint 0, Packard).

Assay [3] deals with T2, human endothelin ETB receptor (human, UniProt P24530 27-442).
T2 construct: whole, on cells; Assayed as membrane homogenates (2.4 ug protein) of transfected CHO cells; also called endothelin receptor B
T2 sequence (looked up): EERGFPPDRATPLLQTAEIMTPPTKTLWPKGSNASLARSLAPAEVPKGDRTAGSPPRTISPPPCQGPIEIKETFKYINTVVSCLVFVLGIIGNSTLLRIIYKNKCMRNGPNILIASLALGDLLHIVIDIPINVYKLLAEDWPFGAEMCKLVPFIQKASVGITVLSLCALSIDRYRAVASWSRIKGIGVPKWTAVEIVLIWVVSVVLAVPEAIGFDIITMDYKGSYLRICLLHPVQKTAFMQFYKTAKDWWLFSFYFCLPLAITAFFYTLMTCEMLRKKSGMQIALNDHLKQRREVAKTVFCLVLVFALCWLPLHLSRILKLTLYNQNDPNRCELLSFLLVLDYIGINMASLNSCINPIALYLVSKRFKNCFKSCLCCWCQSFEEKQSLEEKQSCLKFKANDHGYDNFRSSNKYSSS
Nature of the assay: radioligand competition ([125I]endothelin-1) on membranes of CHO cells transfected with human ETB. As to the method:
To evaluate the affinity of EDN3 97-140 for the agonist site of the human endothelin ETB receptor in transfected CHO cells, radioligand binding was used. […] Following incubation, the samples were filtered rapidly under vacuum through glass fiber filters (GF/B, Packard) presoaked with 0.1% BSA and rinsed several times with an ice-cold buffer containing 50 mM Tris-HCl and 150 mM NaCl using a 96-sample cell harvester (Unifilter, Packard). The filters were dried then counted for radioactivity in a scintillation counter (Topcount, Packard) using a scintillation cocktail (Microscint 0, Packard).
(In general: Loss of bound radioactivity is the signal in a displacement assay; it reports binding, not function.)

Where two headings read alike, the source gives them in different places. Where a SMILES comes first, the peptide text is derived from it. Bridges are numbered along the chain shown (N, C = ends). Where no end group is shown, it is not given here. Bounds are passed on as bounds.

In the assay with GLUTag cells, `CC[C@H](C)[C@H](NC(=O)[C@H](Cc1c[nH]c2ccccc12)NC(=O)[C@@H](NC(=O)[C@@H](NC(=O)[C@H](CC(=O)O)NC(=O)[C@H](CC(C)C)NC(=O)[C@H](Cc1c[nH]cn1)NC(=O)[C@H](CS)NC(=O)[C@H](Cc1ccc(O)cc1)NC(=O)[C@H](Cc1ccc(O)cc1)NC(=O)[C@@H](NC(=O)[C@H](CS)NC(=O)[C@H](CCC(=O)O)NC(=O)[C@H](CCCCN)NC(=O)[C@H](CC(=O)O)NC(=O)[C@H](CCCCN)NC(=O)[C@@H](N)Cc1ccc(O)cc1)C(C)C)[C@@H](C)CC)[C@@H](C)CC)C(=O)N[C@@H](CC(N)=O)C(=O)N[C@H](C(=O)N1CCC[C@H]1C(=O)N[C@@H](CCC(=O)O)C(=O)N[C@@H](CCC(N)=O)C(N)=O)[C@@H](C)O` [EDN3 102-123] (H-YKDKECVYYCHLDIIWINTPEQ-NH2; N-terminus assumed) had an EC50 of more than 10 µM.

On to `CC[C@H](C)[C@H](NC(=O)[C@H](CC(=O)O)NC(=O)[C@H](CC(C)C)NC(=O)[C@H](Cc1c[nH]cn1)NC(=O)[C@@H]1CSSC[C@H](N)C(=O)N[C@@H]([C@@H](C)O)C(=O)N[C@H]2CSSC[C@H](NC(=O)[C@H](CCC(=O)O)NC(=O)[C@H](CCCCN)NC(=O)[C@H](CC(=O)O)NC(=O)[C@H](CCCCN)NC(=O)[C@H](Cc3ccc(O)cc3)NC(=O)[C@H]([C@@H](C)O)NC(=O)[C@H](Cc3ccccc3)NC2=O)C(=O)N[C@@H](C(C)C)C(=O)N[C@@H](Cc2ccc(O)cc2)C(=O)N[C@@H](Cc2ccc(O)cc2)C(=O)N1)C(=O)N[C@H](C(=O)N[C@@H](Cc1c[nH]c2ccccc12)C(=O)O)[C@@H](C)CC` [endothelin-3, reference compound], for which, in the assay on GLUTag cells, the EC50 is more than 10 µM and the “GLP-1 secretion from GLUTag cells, result in words” value (from here on “GLP-1 secretion from GLUTag cells”) is reported as “no effect”. In the assay with GLUTag cells (listed as Endothelin-3 (EDN3 97-117)), the “GLP-1 secretion from GLUTag cells” value is “not sufficient to elicit a GLP-1 release”.

Regarding `C=C[C@@]1(C)CC(=O)[C@]2(O)[C@@]3(C)[C@@H](O)CCC(C)(C)[C@@H]3[C@H](O)[C@H](OC(C)=O)[C@@]2(C)O1` [forskolin, reference compound], in the assay on rat perfused colon, the “stimulation of GLP-1 release, positive control” value is reported as 1717±350%.

Turning to “ATCFTYKDKECVYYAHLDIIWINTPEQTVPYGLSNYRESLRGKR-NH2 (disulfide 3-11) [EDN3 97-140 C97A, C111A]”, in the assay on GLUTag cells, the EC50 was 2.7 µM.

Take “CTAFTYKDKEAVYYCHLDIIWINTPEQTVPYGLSNYRESLRGKR-NH2 (disulfide 1-15) [EDN3 97-140 C99A, C107A]”: the EC50 in the assay with GLUTag cells stood at 1.6 µM.

Consider “CTCFTYKDKECVYYCHLDIIFINTPEQTVPYGLSNYRESLRGKR-NH2 (disulfide 1-15, 3-11 (inferred)) [EDN3 97-140 W117F]”, for which, in the assay on GLUTag cells, the EC50 amounted to 0.731 µM and the “GLP-1 secretion from GLUTag cells” value was “does not cause a loss of GLP-1 secretagogue function”.

For “CTCFTYKDKECVYYCHLDIIHINTPEQTVPYGLSNYRESLRGKR-NH2 (disulfide 1-15, 3-11 (inferred)) [EDN3 97-140 W117H]”, the EC50 in the assay with GLUTag cells is more than 1 µM.

Regarding “CTCFTYKDKECVYYCHLDIIWINTPEQTVPYGLSNYRESLR-NH2 (disulfide 1-15, 3-11 (inferred)) [EDN3 97-137]”, in the assay on GLUTag cells, the EC50 worked out at 1.72 µM and the “GLP-1 secretion from GLUTag cells” value is recorded as “partial loss of activity”.

Turning to “CTCFTYKDKECVYYCHLDIIWINTPEQTVPYGLSNYRESLRGKR-OH (disulfide 1-15, 3-11 (inferred)) [EDN3 97-140 free acid]”, the EC50 with GLUTag cells came to 2 µM.

In the case of “FTYKDKECVYYCHLDIIWINTPEQTVPYGLSNYRESLRGKR-NH2 (cysteines drawn unpaired) [EDN3 100-140]”, in the assay on GLUTag cells, the EC50 was more than 10 µM and the “GLP-1 secretion from GLUTag cells” value is listed as “do not measurably stimulate GLP-1 secretion”.

FTYKDKESVYY-NH2 [EDN3 100-110]: in the assay with GLUTag cells, the EC50 was more than 10 µM.

Take “INTPEQTVPYGLSNYRESLRGKR-NH2 [EDN3 118-140]”: the EC50 with GLUTag cells was more than 10 µM.

As to “STSFTYKDKESVYYSHLDIIWINTPEQTVPYGLSNYRESLRGKR-NH2 [EDN3 97-140 C->S mutant]”, the EC50 in the assay with GLUTag cells was more than 10 µM.

Turning to “TCFTYKDKECVYYCHLDIIWINTPEQTVPYGLSNYRESLRGKR-NH2 (cysteines drawn unpaired) [EDN3 98-140]”, in the assay with GLUTag cells, the EC50 was more than 10 µM and the “GLP-1 secretion from GLUTag cells” value is recorded as “do not measurably stimulate GLP-1 secretion”.

In the assay on GLUTag cells, “YYAHLDIIAINTPEQTVPYGLSNYRESLRGKR-NH2 [EDN3 109-140 C111A W117A]” registered an EC50 of more than 10 µM.

In turn, “YYSHLDIIWINTPEQTVPYGLSNYRESLRGKR-NH2 [EDN3 109-140 C111S]” displayed an EC50 with GLUTag cells of more than 10 µM.

As for endothelin-1 [reference compound], the EC50 in assay [1] is 0.0027 ± 0.001 µM.

B1: EDN3 97-140 (peptide)
peptide: CTCFTYKDKECVYYCHLDIIWINTPEQTVPYGLSNYRESLRGKR-NH2
modifications: not fully specified; cysteine pairing not given here
notes: also called long endothelin-3; 44 amino acid, C-terminally amidated endothelin-like peptide
For B1, the binding result in assay [2] and in assay [3] was “no binding (tested: up to 3 µM)” throughout.
